From patent publication US10975077B2 (Novira Therapeutics, Inc., priority 2016, dated 2021)

These compounds were tested on HBV (encapsidated HBV DNA, HepG2.2.15 cells) (assay: HBV replication inhibition assay, BDNA assay in HepG2.2.15 cells). Details: Activity in BDNA-assay.
Format: cell-based
Summary of the method: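 HepG2.2.15 cells (stably integrated HBV, 40,000/well) treated with serially diluted compound in 0.5% DMSO for 6 days, medium and compound refreshed at day 3. DNase-treated supernatant lysed with proteinase K; encapsidated HBV DNA quantified by bDNA, percent inhibition versus DMSO controls, EC50 by nonlinear fit.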

`CCC(O)C1CN(C)C(=O)c2c3c(nn2C1)CC(C)N(C(=O)Nc1ccc(F)c(C(F)(F)F)c1)C3` [Compound 107_D2, (3R,8R*)—N-(4-fluoro-3-(trifluoromethyl)phenyl)-8-((R)-1-hydroxypropyl)-3,10-dimethyl-11-oxo-1,3,4,7,8,9,10,11-octahydro-2H-pyrido[4′,3′:3,4]pyrazolo[1,5-a][1,4] diazepine-2-carboxamide] and `CCC(O)C1CN(C)C(=O)c2c3c(nn2C1)CC(C)N(C(=O)Nc1ccc(F)c(Br)c1)C3` [Compound 109_D2, (3R,8R*)—N-(3-bromo-4-fluorophenyl)-8-((R)-1-hydroxypropyl)-3,10-dimethyl-11-oxo-1,3,4,7,8,9,10,11-octahydro-2H-pyrido[4′,3′:3,4]pyrazolo[1,5-a][1,4]diazepine-2-carboxamide] fall in the same range of EC50: 1 to 100 nM for the first, 1 to 100 nM for the second.

`CCC(O)C1CN(C)C(=O)c2c3c(nn2C1)CC(C)N(C(=O)Nc1ccc(F)c(C#N)c1)C3` [Compound 108_D1, (3R,8S*)—N-(3-cyano-4-fluorophenyl)-8-((R)-1-hydroxypropyl)-3,10-dimethyl-11-oxo-1,3,4,7,8,9,10,11-octahydro-2H-pyrido[4′,3′:3,4]pyrazolo[1,5-a][1,4]diazepine-2-carboxamide] gave an EC50 of 1 to 100 nM.
For `CCC(O)C1CN(C)C(=O)c2c3c(nn2C1)CC(C)N(C(=O)Nc1ccc(F)c(C#N)c1)C3` [Compound 108_D2, (3R,8R*)—N-(3-cyano-4-fluorophenyl)-8-((R)-1-hydroxypropyl)-3,10-dimethyl-11-oxo-1,3,4,7,8,9,10,11-octahydro-2H-pyrido[4′,3′:3,4]pyrazolo[1,5-a][1,4]diazepine-2-carboxamide], the EC50 was 100 to 500 nM.

Same assay, conditions: Hepatitis B virus, HepG2.2.15, Activity in BDNA-assay

`CN1CC(CN2CCCC2)Cn2nc3c(c2C1=O)CN(C(=O)Nc1ccc(F)c(Cl)c1)CC3` (centres unmarked) [Compound 069, N-(3-chloro-4-fluorophenyl)-10-methyl-11-oxo-8-(pyrrolidin-1-ylmethyl)-1,3,4,7,8,9,10,11-octahydro-2H-pyrido[4′,3′:3,4]pyrazolo[1,5-a][1,4]diazepine-2-carboxamide] and `CN1CCCCn2nc3c(c2C1=O)CN(C(=O)Nc1ccc(F)c(Cl)c1)CC3` [Compound 110, N-(3-chloro-4-fluorophenyl)-11-methyl-12-oxo-3,4,7,8,9,10,11,12-octahydropyrido[4′,3′:3,4]pyrazolo[1,5-a][1,4]diazocine-2 (1H)-carboxamide] fall in the same range of EC50: 1 to 100 nM for the first, 1 to 100 nM for the second.

`CN1CC(CN)Cn2nc3c(c2C1=O)CN(C(=O)Nc1ccc(F)c(Cl)c1)CC3` (centres unmarked) [Compound 070, 8-(aminomethyl)-N-(3-chloro-4-fluorophenyl)-10-methyl-11-oxo-1,3,4,7,8,9,10,11-octahydro-2H-pyrido[4′,3′:3,4]pyrazolo[1,5-a][1,4]diazepine-2-carboxamide] and `CN1CC(CN)Cn2nc3c(c2C1=O)CN(C(=O)Nc1ccc(F)c(C#N)c1)CC3` (centres unmarked) [Compound 095, 8-(aminomethyl)-N-(3-cyano-4-fluorophenyl)-10-methyl-11-oxo-1,3,4,7,8,9,10,11-octahydro-2H-pyrido[4′,3′:3,4]pyrazolo[1,5-a][1,4]diazepine-2-carboxamide] fall in the same range of EC50: 1 to 100 nM for the first, 1 to 100 nM for the second.

First: C[C@@H]1Cc2nn3c(c2CN1C(=O)Nc1cc(Cl)c(F)cc1Br)C(=O)N(CC(F)F)CCC3 [Compound 071, (R)—N-(2-bromo-5-chloro-4-fluorophenyl)-10-(2,2-difluoroethyl)-3-methyl-11-oxo-1,3,4,7,8,9,10,11-octahydro-2H-pyrido[4′,3′:3,4]pyrazolo[1,5-a][1,4]diazepine-2-carboxamide]
Second: C[C@@H]1Cc2nn3c(c2CN1C(=O)Nc1cc(Cl)c(F)cc1F)C(=O)N(CC(F)F)CCC3 [Compound 078, (R)—N-(5-chloro-2,4-difluorophenyl)-10-(2,2-difluoroethyl)-3-methyl-11-oxo-1,3,4,7,8,9,10,11-octahydro-2H-pyrido[4′,3′:3,4]pyrazolo[1,5-a][1,4]diazepine-2-carboxamide]
The EC50 of the first is lower: 1 to 100 nM for the first, 100 to 500 nM for the second.

`C[C@@H]1Cc2nn3c(c2CN1C(=O)Nc1ccc(F)c(Cl)c1)C(=O)N(CC(F)F)CCC3` [Compound 072, (3R)—N-(3-chloro-4-fluorophenyl)-10-(2,2-difluoroethyl)-3-methyl-11-oxo-1,3,4,7,8,9,10,11-octahydro-2H-pyrido[4′,3′:3,4]pyrazolo[1,5-a][1,4]diazepine-2-carboxamide] and `C[C@@H]1Cc2nn3c(c2CN1C(=O)Nc1ccc(F)c(Br)c1)C(=O)N(CC(F)F)CCC3` [Compound 074, (R)—N-(3-bromo-4-fluorophenyl)-10-(2,2-difluoroethyl)-3-methyl-11-oxo-1,3,4,7,8,9,10,11-octahydro-2H-pyrido[4′,3′:3,4]pyrazolo[1,5-a][1,4]diazepine-2-carboxamide] fall in the same range of EC50: 1 to 100 nM for the first, 1 to 100 nM for the second.

`C[C@@H]1Cc2nn3c(c2CN1C(=O)Nc1ccc(F)c(C(F)(F)F)c1)C(=O)N(CC(F)F)CCC3` [Compound 073, (R)-10-(2,2-difluoroethyl)-N-(4-fluoro-3-(trifluoromethyl)phenyl)-3-methyl-11-oxo-1,3,4,7,8,9,10,11-octahydro-2H-pyrido[4′,3′:3,4]pyrazolo[1,5-a][1,4]diazepine-2-carboxamide] and `Cc1cc(NC(=O)N2Cc3c(nn4c3C(=O)N(CC(F)F)CCC4)C[C@H]2C)ccc1F` [Compound 077, (R)-10-(2,2-difluoroethyl)-N-(4-fluoro-3-methylphenyl)-3-methyl-11-oxo-1,3,4,7,8,9,10,11-octahydro-2H-pyrido[4′,3′:3,4]pyrazolo[1,5-a][1,4]diazepine-2-carboxamide] fall in the same range of EC50: 1 to 100 nM for the first, 1 to 100 nM for the second.

`C[C@@H]1Cc2nn3c(c2CN1C(=O)Nc1ccnc(Br)c1F)C(=O)N(CC(F)F)CCC3` [Compound 075] and `C[C@@H]1Cc2nn3c(c2CN1C(=O)Nc1ccc(F)c(C#N)c1)C(=O)N(CC(F)F)CCC3` [Compound 076, (R)—N-(3-cyano-4-fluorophenyl)-10-(2,2-difluoroethyl)-3-methyl-11-oxo-1,3,4,7,8,9,10,11-octahydro-2H-pyrido[4′,3′:3,4]pyrazolo[1,5-a][1,4]diazepine-2-carboxamide] fall in the same range of EC50: 1 to 100 nM for the first, 1 to 100 nM for the second.

First: CN1CC(CO)(CC(F)F)Cn2nc3c(c2C1=O)CN(C(=O)Nc1ccc(F)c(Cl)c1)CC3 (centres unmarked) [Compound 091, N-(3-chloro-4-fluorophenyl)-8-(2,2-difluoroethyl)-8-(hydroxmethyl)-10-methyl-11-oxo-1,3,4,7,8,9,10,11-octahydro-2H-pyrido[4′,3′:3,4]pyrazolo[1,5-a][1,4]diazepine-2-carboxamide]
Second: CCCC(O)C1CN(C)C(=O)c2c3c(nn2C1)CCN(C(=O)Nc1ccc(F)c(Cl)c1)C3 (centres unmarked) [Compound 106, N-(3-chloro-4-fluoro-phenyl)-8-(1-hydroxybutyl)-10-methyl-1-oxo-1,3,4,7,8,9-hexahydropyrido[2,3]pyrazolo[2,4-b][1,4]diazepine-2-carboxamide]
The EC50 of the first is higher: 100 to 500 nM for the first, 1 to 100 nM for the second. The second is the more potent here.

`CN1CC(CN)Cn2nc3c(c2C1=O)CN(C(=O)Nc1ccc(F)c(C(F)(F)F)c1)CC3` (centres unmarked) [Compound 093, 8-(aminomethyl)-N-[4-fluoro-3-(trifluoromethyl)phenyl]-10-methyl-11-oxo-1,3,4,7,8,9-hexahydropyrido[2,3]pyrazolo[2,4-b][1,4]diazepine-2-carboxamide] and `CNCC1CN(C)C(=O)c2c3c(nn2C1)CCN(C(=O)Nc1ccc(F)c(C(F)(F)F)c1)C3` (centres unmarked) [Compound 094, N-[4-fluoro-3-(trifluoromethyl)phenyl]-10-methyl-8-(methylaminomethyl)-11-oxo-1,3,4,7,8,9-hexahydropyrido[2,3]pyrazolo[2,4-b][1,4]diazepine-2-carboxamide] fall in the same range of EC50: 100 to 500 nM for the first, 100 to 500 nM for the second.

`CCC(O)C1CN(C)C(=O)c2c3c(nn2C1)CCN(C(=O)Nc1ccc(F)c(Br)c1)C3` [Compound 102_E1, (R*)—N-(3-bromo-4-fluorophenyl)-8-((S)-1-hydroxypropyl)-10-methyl-11-oxo-1,3,4,7,8,9,10,11-octahydro-2H-pyrido[4′,3′:3,4]pyrazolo[1,5-a][1,4]diazepine-2-carboxamide] and `CCC(O)C1CN(C)C(=O)c2c3c(nn2C1)CC(C)N(C(=O)Nc1ccc(F)c(Br)c1)C3` [Compound 109_D1, (3R,8 S*)—N-(3-bromo-4-fluorophenyl)-8-((R)-1-hydroxypropyl)-3,10-dimethyl-11-oxo-1,3,4,7,8,9,10,11-octahydro-2H-pyrido[4′,3′:3,4]pyrazolo[1,5-a][1,4]diazepine-2-carboxamide] fall in the same range of EC50: 1 to 100 nM for the first, 1 to 100 nM for the second.

`CCC(O)C1CN(C)C(=O)c2c3c(nn2C1)CC(C)N(C(=O)Nc1ccc(F)c(C(F)(F)F)c1)C3` [Compound 107_D1, (3R,8S*)—N-(4-fluoro-3-(trifluoromethyl)phenyl)-8-((R)-1-hydroxypropyl)-3,10-dimethyl-11-oxo-1,3,4,7,8,9,10,11-octahydro-2H-pyrido[4′,3′:3,4]pyrazolo[1,5-a][1,4] diazepine-2-carboxamide] and `CN1C/C=C\Cn2nc3c(c2C1=O)CN(C(=O)Nc1ccc(F)c(Cl)c1)CC3` [Compound 111, (Z)—N-(3-chloro-4-fluorophenyl)-11-methyl-12-oxo-3,4,7,10,11,12-hexahydropyrido[4′,3′:3,4]pyrazolo[1,5-a][1,4]diazocine-2 (1H)-carboxamide] fall in the same range of EC50: 1 to 100 nM for the first, 1 to 100 nM for the second.

Compared with `CN1CCC(C(=O)O)n2nc3c(c2C1=O)CN(C(=O)Nc1ccc(F)c(Cl)c1)CC3` (centres unmarked) [Compound 113, 2-((3-chloro-4-fluorophenyl)carbamoyl)-10-methyl-11-oxo-1,3,4,7,8,9,10,11-octahydro-2H-pyrido[4′,3′:3,4]pyrazolo[1,5-a][1,4]diazepine-7-carboxylic acid], `CN1CCC(CO)n2nc3c(c2C1=O)CN(C(=O)Nc1ccc(F)c(Cl)c1)CC3` (centres unmarked) [Compound 114, N-(3-chloro-4-fluorophenyl)-7-(hydroxymethyl)-10-methyl-11-oxo-1,3,4,7,8,9,10,11-octahydro-2H-pyrido[4′,3′:3,4]pyrazolo[1,5-a][1,4]diazepine-2-carboxamide] is lower in EC50: > 1000 nM for the first, 1 to 100 nM for the second. The second is the more potent here.
